Assay [1] has as its target T1, JAK2 (Homo sapiens, UniProt O60674).
T1 construct: host or cells: baculovirus expression system
Put plainly: Recombinant Human JAK2 Kinase Assay (TRF). In kind it is biochemical. Particulars: JAK2 Kinase Inhibition; read-out: JAK2 Potency. In a few lines: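 Baculovirus-expressed JAK2 (15 ng/ml) phosphorylated a biotinylated 15-mer peptide captured on Neutravidin-coated plates, in 20 mM HEPES pH 7.2 with 0.2 μM ATP, 1 mM MnCl2, 0.1% BSA and 2.5% DMSO. Reaction ran 20 min at room temperature; phosphopeptide was detected by time-resolved fluorescence with Eu-N1-labelled PY100 antibody.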

The target of assay [2] is T2, ALK (Homo sapiens, UniProt Q9UM73).
T2 construct: host or cells: baculovirus expression system
T2 sequence (Q9UM73 19-1620): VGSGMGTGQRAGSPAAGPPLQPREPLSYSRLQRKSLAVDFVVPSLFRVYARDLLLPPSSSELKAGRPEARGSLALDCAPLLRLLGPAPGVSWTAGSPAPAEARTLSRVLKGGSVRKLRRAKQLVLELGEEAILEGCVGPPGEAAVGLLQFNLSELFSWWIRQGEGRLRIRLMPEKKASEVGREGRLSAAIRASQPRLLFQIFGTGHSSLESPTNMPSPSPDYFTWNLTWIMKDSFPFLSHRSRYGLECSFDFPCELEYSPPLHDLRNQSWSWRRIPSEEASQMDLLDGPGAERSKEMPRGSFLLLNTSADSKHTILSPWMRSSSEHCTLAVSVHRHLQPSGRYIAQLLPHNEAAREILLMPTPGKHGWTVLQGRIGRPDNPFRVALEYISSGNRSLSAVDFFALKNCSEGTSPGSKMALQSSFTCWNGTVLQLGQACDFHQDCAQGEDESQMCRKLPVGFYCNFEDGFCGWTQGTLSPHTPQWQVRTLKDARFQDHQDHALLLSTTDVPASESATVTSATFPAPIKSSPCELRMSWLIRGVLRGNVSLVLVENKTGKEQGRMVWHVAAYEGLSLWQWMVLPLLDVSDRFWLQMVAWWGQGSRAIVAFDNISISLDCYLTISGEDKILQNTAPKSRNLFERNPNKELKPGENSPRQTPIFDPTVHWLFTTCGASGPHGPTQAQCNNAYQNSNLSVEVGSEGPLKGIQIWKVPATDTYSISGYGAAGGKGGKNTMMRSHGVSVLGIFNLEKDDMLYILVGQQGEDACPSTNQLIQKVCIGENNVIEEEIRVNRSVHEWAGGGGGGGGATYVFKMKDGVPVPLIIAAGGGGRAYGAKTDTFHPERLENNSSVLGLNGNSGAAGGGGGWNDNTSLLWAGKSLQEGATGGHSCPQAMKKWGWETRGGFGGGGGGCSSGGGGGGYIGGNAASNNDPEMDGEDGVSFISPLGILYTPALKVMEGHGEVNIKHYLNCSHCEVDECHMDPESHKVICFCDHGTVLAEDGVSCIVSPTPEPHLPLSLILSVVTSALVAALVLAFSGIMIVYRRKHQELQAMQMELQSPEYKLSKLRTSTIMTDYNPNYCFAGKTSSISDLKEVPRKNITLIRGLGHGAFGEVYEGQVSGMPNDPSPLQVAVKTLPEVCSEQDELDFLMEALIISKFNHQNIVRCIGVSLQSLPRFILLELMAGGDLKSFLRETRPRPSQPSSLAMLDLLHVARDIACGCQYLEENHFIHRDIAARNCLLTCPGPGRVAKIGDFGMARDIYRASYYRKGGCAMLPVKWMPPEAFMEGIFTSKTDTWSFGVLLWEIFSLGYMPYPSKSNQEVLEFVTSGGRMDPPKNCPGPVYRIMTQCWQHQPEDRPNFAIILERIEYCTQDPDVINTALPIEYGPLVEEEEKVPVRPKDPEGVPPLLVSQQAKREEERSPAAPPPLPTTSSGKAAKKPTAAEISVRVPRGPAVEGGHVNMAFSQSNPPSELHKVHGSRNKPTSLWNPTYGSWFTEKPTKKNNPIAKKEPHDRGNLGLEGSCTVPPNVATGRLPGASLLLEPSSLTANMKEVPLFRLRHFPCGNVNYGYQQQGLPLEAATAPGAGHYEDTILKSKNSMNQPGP
Put plainly: ALK Kinase Assay (ELISA/TRF, PLC-γ substrate). Type of assay: biochemical. The settings on record: ALK Kinase Inhibition; read-out: ALK Potency. The method in brief: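 Wells were coated with 10 μg/mL phospholipase C-γ substrate in TBS, and the reaction was started by adding 30 ng/ml ALK enzyme and run at 37° C for 15 minutes. Phosphorylated product was detected with Eu-N1-labeled PT66 antibody, and IC50 values came from sigmoidal variable-slope fits of percent inhibition against log concentration.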
Background: An ELISA detects its analyte on a solid surface through an enzyme-linked reagent.

Data on 28 compounds can be found in US8471005B2 (Cephalon, Inc., priority 2008, dated 2013).

T1 sequence (O60674 whole entry): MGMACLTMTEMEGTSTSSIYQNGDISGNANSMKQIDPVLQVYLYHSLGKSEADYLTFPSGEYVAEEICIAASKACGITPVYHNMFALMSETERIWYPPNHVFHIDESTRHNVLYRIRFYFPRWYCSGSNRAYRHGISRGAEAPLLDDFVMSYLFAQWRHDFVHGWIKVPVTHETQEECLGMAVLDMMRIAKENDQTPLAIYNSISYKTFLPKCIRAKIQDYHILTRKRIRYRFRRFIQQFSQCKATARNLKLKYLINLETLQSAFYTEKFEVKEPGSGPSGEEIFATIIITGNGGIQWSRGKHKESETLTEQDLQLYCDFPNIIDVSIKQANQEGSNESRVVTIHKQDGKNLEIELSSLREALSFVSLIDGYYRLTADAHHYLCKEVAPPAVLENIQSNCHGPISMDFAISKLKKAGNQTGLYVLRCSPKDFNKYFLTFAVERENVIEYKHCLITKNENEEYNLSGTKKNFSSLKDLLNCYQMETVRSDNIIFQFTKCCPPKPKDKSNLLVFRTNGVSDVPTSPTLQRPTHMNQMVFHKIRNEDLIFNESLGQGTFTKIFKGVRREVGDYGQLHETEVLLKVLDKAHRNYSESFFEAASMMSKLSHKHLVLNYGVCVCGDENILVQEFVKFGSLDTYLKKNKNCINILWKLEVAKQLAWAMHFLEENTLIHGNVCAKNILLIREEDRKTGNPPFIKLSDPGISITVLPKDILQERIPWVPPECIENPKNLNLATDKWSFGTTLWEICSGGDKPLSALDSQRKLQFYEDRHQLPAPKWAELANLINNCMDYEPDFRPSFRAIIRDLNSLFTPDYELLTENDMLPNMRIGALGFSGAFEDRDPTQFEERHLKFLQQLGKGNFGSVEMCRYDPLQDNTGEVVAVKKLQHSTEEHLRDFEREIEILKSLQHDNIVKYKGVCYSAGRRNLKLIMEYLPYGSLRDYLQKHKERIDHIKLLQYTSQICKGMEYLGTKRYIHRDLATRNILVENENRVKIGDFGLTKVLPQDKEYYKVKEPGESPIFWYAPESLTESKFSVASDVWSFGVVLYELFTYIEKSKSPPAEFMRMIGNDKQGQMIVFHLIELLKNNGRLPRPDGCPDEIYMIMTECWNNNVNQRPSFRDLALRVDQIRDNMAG

In the case of `CN1CCN(c2ccc(Nc3ncc4ccc(-c5cccc(NS(C)(=O)=O)c5)n4n3)cc2)CC1` [Example 379, N-(3-{2-[4-(4-Methyl-piperazin-1-yl)-phenylamino]-pyrrolo[2,1-f][1,2,4]triazin-7-yl}-phenyl)-methanesulfonamide], the values for the IC50 in assay [1] and in assay [2] were less than 100 nM and 100 to 1000 nM, respectively.

In the case of `CS(=O)(=O)Nc1cccc(-c2ccc3cnc(Nc4ccc(N5CCN(CCO)CC5)cc4)nn23)c1` [Example 380, N-[3-(2-{4-[4-(2-Hydroxy-ethyl)-piperazin-1-yl]-phenylamino}-pyrrolo[2,1-f][1,2,4]triazin-7-yl)-phenyl]-methanesulfonamide], the IC50 in assay [1] and in assay [2] was less than 100 nM throughout.

As to `CC1(C)CCC(=O)Nc2cc(Nc3ncc4ccc(-c5cccc(NS(C)(=O)=O)c5)n4n3)ccc21` [Example 381, N-{3-[2-(5,5-Dimethyl-2-oxo-2,3,4,5-tetrahydro-1H-1-benzazepin-8-ylamino)-pyrrolo[2,1-f][1,2,4]triazin-7-yl]-phenyl}-methanesulfonamide], the IC50 in assay [1] is less than 100 nM; in assay [2] it was 100 to 1000 nM.

For the compound `CS(=O)(=O)Nc1cccc(-c2ccc3cnc(Nc4ccc5c(c4)CCC(N4CCOCC4)CC5)nn23)c1` (centres unmarked) [Example 382, N-{3-[2-(7-Morpholin-4-yl-6,7,8,9-tetrahydro-5H-benzocyclohepten-2-ylamino)-pyrrolo[2,1-f][1,2,4]triazin-7-yl]-phenyl}-methanesulfonamide], the values for the IC50 in assay [1] and in assay [2] were less than 100 nM and 100 to 1000 nM, respectively.

Turning to `OC(c1ccccc1)c1ccc2cnc(Nc3ccc(N4CCOCC4)cc3)nn12` (centres unmarked) [Example 383, [2-(4-Morpholin-4-yl-phenylamino)-pyrrolo[2,1-f][1,2,4]triazin-7-yl]-phenyl-methanol], the IC50 is less than 100 nM in assay [1] and 1000 to 10000 nM in assay [2].

As to `COc1ccc(-c2ccc3cnc(Nc4ccc5c(c4)CC(=O)N5C)nn23)cn1` [Example 384, 5-[7-(6-Methoxy-pyridin-3-yl)-pyrrolo[2,1-f][1,2,4]triazin-2-ylamino]-1-methyl-1,3-dihydro-indol-2-one], the IC50 in assay [1] is less than 100 nM; in assay [2], 1000 to 10000 nM.

Take `CN(c1ncccc1Nc1ccc2cnc(Nc3ccc(N4CCOCC4)cc3)nn12)S(C)(=O)=O` [Example 385, N-Methyl-N-{3-[2-(4-morpholin-4-yl-phenylamino)-pyrrolo[2,1-f][1,2,4]triazin-7-ylamino]-pyridin-2-yl}-methanesulfonamide]: the IC50 is less than 100 nM in assay [1] and 1000 to 10000 nM in assay [2].

On to `CN(c1ccccc1-c1ccc2cnc(Nc3ccc(N4CCOCC4)cc3F)nn12)S(C)(=O)=O` [Example 386, N-{2-[2-(2-Fluoro-4-morpholin-4-yl-phenylamino)-pyrrolo[2,1-f][1,2,4]triazin-7-yl]-phenyl}-N-methyl-methanesulfonamide], for which the IC50 in assay [1] is less than 100 nM; in assay [2], 100 to 1000 nM.

On to `CN1C(=O)Cc2cc(Nc3ncc4ccc(Nc5cccnc5N(C)S(C)(=O)=O)n4n3)ccc21` [Example 387, N-Methyl-N-{3-[2-(1-methyl-2-oxo-2,3-dihydro-1H-indol-5-ylamino)-pyrrolo[2,1-f][1,2,4]triazin-7-ylamino]-pyridin-2-yl}-methanesulfonamide], for which the results for the IC50 in assay [1] and in assay [2] were less than 100 nM and 1000 to 10000 nM, respectively.

With `CN(c1ccccc1-c1ccc2cnc(Nc3ccc(F)c(N4CCOCC4)c3)nn12)S(C)(=O)=O` [Example 388, N-{2-[2-(4-Fluoro-3-morpholin-4-yl-phenylamino)-pyrrolo[2,1-f][1,2,4]triazin-7-yl]-phenyl}-N-methyl-methanesulfonamide], the IC50 in assay [1] is less than 100 nM; in assay [2], 100 to 1000 nM.

On to `COc1ccccc1-c1ccc2cnc(Nc3ccc(F)c(N4CCOCC4)c3)nn12` [Example 389, (4-Fluoro-3-morpholin-4-yl-phenyl)-[7-(2-methoxy-phenyl)-pyrrolo[2,1-f][1,2,4]triazin-2-yl]-amine], for which the IC50 in assay [1] was less than 100 nM; in assay [2], 100 to 1000 nM.

With `CS(=O)(=O)Nc1cccc(-c2ccc3cnc(Nc4ccc(F)c(N5CCOCC5)c4)nn23)c1` [Example 390, N-{3-[2-(4-Fluoro-3-morpholin-4-yl-phenylamino)-pyrrolo[2,1-f][1,2,4]triazin-7-yl]-phenyl}-methanesulfonamide], the IC50 was less than 100 nM in assay [1] and 100 to 1000 nM in assay [2].

For the compound `Fc1ccc(Nc2ncc3ccc(-c4cccnc4)n3n2)cc1N1CCOCC1` [Example 391, (4-Fluoro-3-morpholin-4-yl-phenyl)-(7-pyridin-3-yl-pyrrolo[2,1-f][1,2,4]triazin-2-yl)-amine], the IC50 in assay [1] is less than 100 nM; in assay [2], 1000 to 10000 nM.

In the case of `COc1ccc(-c2ccc3cnc(Nc4ccc(F)c(N5CCOCC5)c4)nn23)cn1` [Example 392, (4-Fluoro-3-morpholin-4-yl-phenyl)-[7-(6-methoxy-pyridin-3-yl)-pyrrolo[2,1-f][1,2,4]triazin-2-yl]-amine], the IC50 was less than 100 nM in assay [1] and 1000 to 10000 nM in assay [2].

For the compound `COc1ccc(Nc2ncc3ccc(-c4ccccc4N(C)S(C)(=O)=O)n3n2)cc1N1CCOCC1` [Example 393, N-{2-[2-(4-Methoxy-3-morpholin-4-yl-phenylamino)-pyrrolo[2,1-f][1,2,4]triazin-7-yl]-phenyl}-N-methyl-methanesulfonamide], the IC50 in assay [1] and in assay [2] was less than 100 nM each time.

With `COc1ccccc1-c1ccc2cnc(Nc3ccc(OC)c(N4CCOCC4)c3)nn12` [Example 394, (4-Methoxy-3-morpholin-4-yl-phenyl)-[7-(2-methoxy-phenyl)-pyrrolo[2,1-f][1,2,4]triazin-2-yl]-amine], the IC50 in assay [1] and in assay [2] was less than 100 nM in each case.

For the compound `COc1ccc(Nc2ncc3ccc(-c4cccc(NS(C)(=O)=O)c4)n3n2)cc1N1CCOCC1` [Example 395, N-{3-[2-(4-Methoxy-3-morpholin-4-yl-phenylamino)-pyrrolo[2,1-f][1,2,4]triazin-7-yl]-phenyl}-methanesulfonamide], the IC50 is less than 100 nM in assay [1] and 100 to 1000 nM in assay [2].

Consider `COc1ccc(Nc2ncc3ccc(-c4cccnc4)n3n2)cc1N1CCOCC1` [Example 396, (4-Methoxy-3-morpholin-4-yl-phenyl)-(7-pyridin-3-yl-pyrrolo[2,1-f][1,2,4]triazin-2-yl)-amine], for which the IC50 in assay [1] was less than 100 nM; in assay [2] it was 100 to 1000 nM.

In the case of `COc1ccc(-c2ccc3cnc(Nc4ccc(OC)c(N5CCOCC5)c4)nn23)cn1` [Example 397, (4-Methoxy-3-morpholin-4-yl-phenyl)-[7-(6-methoxy-pyridin-3-yl)-pyrrolo[2,1-f][1,2,4]triazin-2-yl]-amine], the IC50 in assay [1] was less than 100 nM; in assay [2] it was 100 to 1000 nM.

As to `CC(=O)c1ccccc1-c1ccc2cnc(Nc3ccc(N4CCOCC4)cc3)nn12` [Example 400, 1-{2-[2-(4-Morpholin-4-yl-phenylamino)-pyrrolo[2,1-f][1,2,4]triazin-7-yl]-phenyl}-ethanone], the IC50 in assay [1] was less than 100 nM; in assay [2], 1000 to 10000 nM.

As to `CC(C)(C)C(=O)Nc1ccccc1-c1ccc2cnc(Nc3ccc(N4CCOCC4)cc3)nn12` [Example 401, 2,2-Dimethyl-N-{2-[2-(4-morpholin-4-yl-phenylamino)-pyrrolo[2,1-f][1,2,4]triazin-7-yl]-phenyl}-propionamide], the IC50 in assay [1] was less than 100 nM; in assay [2] it was greater than 10000 nM.

In the case of `CC(=O)c1ccccc1-c1ccc2cnc(Nc3ccc(N4CCN(C)CC4)cc3)nn12` [Example 402, 1-(2-{2-[4-(4-Methyl-piperazin-1-yl)-phenylamino]-pyrrolo[2,1-f][1,2,4]triazin-7-yl}-phenyl)-ethanone], the figures for the IC50 in assay [1] and in assay [2] were less than 100 nM and 100 to 1000 nM, respectively.

Regarding `CN1CCN(c2ccc(Nc3ncc4ccc(-c5ccccc5NC(=O)C(C)(C)C)n4n3)cc2)CC1` [Example 403, 2,2-Dimethyl-N-(2-{2-[4-(4-methyl-piperazin-1-yl)-phenylamino]-pyrrolo[2,1-f][1,2,4]triazin-7-yl}-phenyl)-propionamide], the values for the IC50 in assay [1] and in assay [2] were 1000 to 10000 nM and greater than 10000 nM, respectively.

As for `CN1CCN(c2ccc(Nc3ncc4ccc(-c5ccccc5[S+](C)[O-])n4n3)cc2)CC1` (centres unmarked) [Example 404, [7-(2-Methanesulfinyl-phenyl)-pyrrolo[2,1-f][1,2,4]triazin-2-yl]-[4-(4-methyl-piperazin-1-yl)-phenyl]-amine], the IC50 in assay [1] is less than 100 nM; in assay [2], 100 to 1000 nM.

In the case of `C[S+]([O-])c1ccccc1-c1ccc2cnc(Nc3ccc(N4CCOCC4)cc3)nn12` (centres unmarked) [Example 405, [7-(2-Methanesulfinyl-phenyl)-pyrrolo[2,1-f][1,2,4]triazin-2-yl]-(4-morpholin-4-yl-phenyl)-amine], the IC50 in assay [1] is less than 100 nM; in assay [2], 1000 to 10000 nM.

`CN1CCN(c2ccc(Nc3ncc4ccc(-c5ccccc5S(C)(=O)=O)n4n3)cc2)CC1` [Example 406, [7-(2-Methanesulfonyl-phenyl)-pyrrolo[2,1-f][1,2,4]triazin-2-yl]-[4-(4-methyl-piperazin-1-yl)-phenyl]-amine]: the IC50 in assay [1] is less than 100 nM; in assay [2], 1000 to 10000 nM.

On to `CCN(CC)C(=O)c1ccccc1-c1ccc2cnc(Nc3ccc(N4CCN(C)CC4)cc3)nn12` [Example 407, N,N-Diethyl-2-{2-[4-(4-methyl-piperazin-1-yl)-phenylamino]-pyrrolo[2,1-f][1,2,4]triazin-7-yl}-benzamide], for which the IC50 was less than 100 nM in assay [1] and 100 to 1000 nM in assay [2].

Turning to `CCN(CC)C(=O)c1ccccc1-c1ccc2cnc(Nc3ccc(N4CCOCC4)cc3)nn12` [Example 408, N,N-Diethyl-2-[2-(4-morpholin-4-yl-phenylamino)-pyrrolo[2,1-f][1,2,4]triazin-7-yl]-benzamide], the figures for the IC50 in assay [1] and in assay [2] were less than 100 nM and 100 to 1000 nM, respectively.
